System: murine TAC model
Experiment: Mouse Transverse Aortic Constriction (TAC) Left Ventricular Pressure Overload Model
Type: in vivo, C57BLK/6J mice
Conditions: 10-week mouse TAC, Example 1 at 1, 3, 10 mg/kg/d, Example B at 100 mg/kg/d
Description: Male C57BLK/6J mice (10-12 weeks old) were individually housed and acclimated to a standard powdered rodent diet for 1-3 days. Water was offered ad libitum throughout the study. Mice were initially anesthetized in a chamber using an 3% isoflurane with oxygen (1.0 L/min), and then maintained at 1.5% via nose cone (without intubation). A small incision (˜5 mm) was made just left of midline and just above the rib cage at the level of the suprasternal notch. The muscle tissue was retracted to expose the area above the pleural cavity. The lobes of the thymus were separated and retracted to expose the aortic arch. Fine surgical forceps with blunted tips were used to expose a region above and below the aorta. A micro blunt hook tied with 7-0 silk surgical suture was looped under the aorta and the suture pulled through. The suture was tied-off against a small piece of blunted 27 G needle and the needle was then removed creating the aortic constriction (a 60-70% constriction of the lumen). The incision was closed using 6-0 silk suture for the muscle layer, then the skin with Medbond. The sham procedure was identical without ligation of aorta. Depending on the individual study designs, drug administration began either on the day of surgery, or 1-2 weeks after surgery (detailed in figure legends) and continued until the end of study. Compounds were administered in the mouse chow unless otherwise noted in FIG. 12 legends. TAC study duration was either 6 weeks or 10 weeks in duration. All TAC study endpoints were collected at the end of study. Following heart dissections, samples were either snap frozen in liquid nitrogen and stored at −80° C. or placed in 10% neutral buffered formalin until analysis.
Echocardiography: For mouse TAC studies, echocardiography was performed on a Vevo 2100 high frequency imaging system. Animals were anesthetized with 2-3% isoflurane and sedation maintained with 1% isoflurane with animals on a heating pad. B-mode imaging of three cardiac cycles was used to assess ejection fraction (EF), end diastolic volume (EDV), end systolic volume (ESV), LV mass, and heart rate. ECG was used to measure heart rate during the echocardiography procedure.
NADPH dehydrogenase [quinone]-1 (NQO1) activity: Left ventricular (LV) tissue NQO1 activity was determined using an NQO1 assay kit per manufacturer's protocol (Abcam, Cambridge MA)
The KEAP1 blockers/Nrf2 activators, (R)-3-(1,4-dimethyl-1H-benzo[d][1,2,3]triazol-5-yl)-3-(3-(((R)-2-ethyl-7-hydroxy-2,3-dihydropyrido[2,3-f][1,4]oxazepin-4(5H)-yl)methyl)-4-methylphenyl)propanoic acid, hydrochloride, or a tautomer thereof (Example 1) (in dose-response) and (S)-3-(1,4-dimethyl-1H-benzo[d][1,2,3]triazol-5-yl)-3-(3-(((R)-2-ethyl-2,3-dihydropyrido[3,4-f][1,4]oxazepin-4(5H)-yl)methyl)-4-methylphenyl)-2,2-dimethylpropanoic acid (Example B) were evaluated in a 10-week mouse TAC model of severe hemodynamic stress.
FIG. 12 depicts the effect of the KEAP1-kelch domain blockers/Nrf2 activators (R)-3-(1,4-dimethyl-1H-benzo[d][1,2,3]triazol-5-yl)-3-(3-(((R)-2-ethyl-7-hydroxy-2,3-dihydropyrido[2,3-f][1,4]oxazepin-4(5H)-yl)methyl)-4-methylphenyl)propanoic acid, hydrochloride, or a tautomer thereof (Compound of Example 1) and (S)-3-(1,4-dimethyl-1H-benzo[d][1,2,3]triazol-5-yl)-3-(3-(((R)-2-ethyl-2,3-dihydropyrido[3,4-f][1,4]oxazepin-4(5H)-yl)methyl)-4-methylphenyl)-2,2-dimethylpropanoic acid (Compound B) on cardiac function, remodeling, and NQO1 enzyme activity in the murine 10-week TAC model. All compounds were dosed in chow beginning 2-weeks after TAC. […]

With `CC[C@@H]1CN(Cc2cc([C@@H](CC(=O)O)c3ccc4c(nnn4C)c3C)ccc2C)Cc2nc(O)ccc2O1` [Example 1, (R)-3-(1,4-dimethyl-1H-benzo[d][1,2,3]triazol-5-yl)-3-(3-(((R)-2-ethyl-7-hydroxy-2,3-dihydropyrido[2,3-f][1,4]oxazepin-4(5H)-yl)methyl)-4-methylphenyl)propanoic acid] the “cardiac function as assessed by ejection fraction” value (daily in chow for eight weeks from 2 weeks after TAC) was “full normalization of cardiac function”, the “NAD(P)H quinone oxidoreductase 1 (NQO1) in the LV” value (daily in chow for eight weeks) was “significant dose-related elevations” and the “cardiac hypertrophy (left ventricular mass)” value (daily in chow for eight weeks) was “did not influence cardiac hypertrophy”. For the same compound, the “unloading the heart (blood pressure) or heart rate” value (daily in chow for eight weeks) was “nor did the ejection fraction change occur by unloading the heart (i.e., lowering blood pressure) or increasing the heart rate”.
